According to patent US11000033B2, “Ketone or oxime compound, and herbicide” (NISSAN CHEMICAL CORPORATION, priority 2014, dated 2021):

Columns and labels:
Assay type in all cases: in vivo
[1] = test system: Echinochloa oryzacola Vasing.; test: Test Example 2: herbicidal activity, application during weed generation in submerged conditions (symbol A); settings: Table 23; application herbicide amount 320 g/ha; grade 0-5 by criteria of Test Example 1
Method in brief: (§1)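 Submerged alluvial soil (4 cm) sown with mixed seed; greenhouse 25–30° C. 1–2 leaf: diluted emulsion onto water surface, preset dose. Visual score, 3 wk.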

[2] = test system: Scirpus juncoides; test: Test Example 2: herbicidal activity, application during weed generation in submerged conditions (symbol B); settings: Table 23; application herbicide amount 320 g/ha; grade 0-5 by criteria of Test Example 1
Method in brief: as §1

[3] = test system: Monochoria vaginalis; test: Test Example 2: herbicidal activity, application during weed generation in submerged conditions (symbol C); settings: Table 23; application herbicide amount 320 g/ha; grade 0-5 by criteria of Test Example 1
Method in brief: as §1

[4] = test system: Digitaria ciliaris; test: Test Example 4: herbicidal effect by soil treatment (symbol F); settings: application herbicide amount 320 g/ha
Text: (§2) Herbicidal Effect Test by Soil Treatment
(§3) Sterilized diluvial soil was placed in a plastic box having a length of 21 cm, a width of 13 cm, and a depth of 7 cm. Each of the seeds of Digitaria ciliaris, Setaria viridis, Echinochloa crus-galli var. crus-galli, Avena fatua, Alopecurus myosuroides, Lolium multiflorum Lam., Apera spica-venti, Abutilon theophrasti, Amaranthus retroflexus, Chenopodium album, Stellaria media, Galium spurium, Veronica persica, corn, soybean, rice, wheat, beet, and rapeseed was sowed in a spot-like manner and was covered with the soil of a thickness of about 1.5 cm. Subsequently, the emulsion agent of the compound present invention prepared in accordance with Formulation Example 2 was diluted with water so as to be a predetermined herbicide amount and the diluted emulsion agent was uniformly applied to the surface of the soil with a small-size spray. The plastic box was placed in a greenhouse of 25° C. to 30° C. to grow plant. 3 weeks later from the herbicide application, the effect to each plant was investigated in accordance with the criteria of Test Example 1.

[5] = test system: Setaria viridis; test: Test Example 4: herbicidal effect by soil treatment (symbol G); settings: application herbicide amount 320 g/ha
Text: as §2, §3

[6] = test system: Echinochloa crus-galli var. crus-galli; test: Test Example 4: herbicidal effect by soil treatment (symbol H); settings: application herbicide amount 320 g/ha
Text: as §2, §3

[7] = test system: Avena fatua; test: Test Example 4: herbicidal effect by soil treatment (symbol I); settings: application herbicide amount 320 g/ha
Text: as §2, §3

[8] = test system: Alopecurus myosuroides; test: Test Example 4: herbicidal effect by soil treatment (symbol J); settings: application herbicide amount 320 g/ha
Text: as §2, §3

[9] = test system: Lolium multiflorum Lam.; test: Test Example 4: herbicidal effect by soil treatment (symbol K); settings: application herbicide amount 320 g/ha
Text: as §2, §3

[10] = test system: Apera spica-venti; test: Test Example 4: herbicidal effect by soil treatment (symbol L); settings: application herbicide amount 320 g/ha
Text: as §2, §3

[11] = test system: Abutilon theophrasti; test: Test Example 4: herbicidal effect by soil treatment (symbol M); settings: application herbicide amount 320 g/ha
Text: as §2, §3

[12] = test system: Amaranthus retroflexus; test: Test Example 4: herbicidal effect by soil treatment (symbol N); settings: application herbicide amount 320 g/ha
Text: as §2, §3

[13] = test system: Chenopodium album; test: Test Example 4: herbicidal effect by soil treatment (symbol O); settings: application herbicide amount 320 g/ha
Text: as §2, §3

[14] = test system: Stellaria media; test: Test Example 4: herbicidal effect by soil treatment (symbol P); settings: application herbicide amount 320 g/ha
Text: as §2, §3

[15] = test system: Galium spurium; test: Test Example 4: herbicidal effect by soil treatment (symbol Q); settings: application herbicide amount 320 g/ha
Text: as §2, §3

[16] = test system: Veronica persica; test: Test Example 4: herbicidal effect by soil treatment (symbol R); settings: application herbicide amount 320 g/ha
Text: as §2, §3

[17] = test system: corn; test: Test Example 4: effect on crop by soil treatment (symbol c); settings: application herbicide amount 320 g/ha
Text: as §2
(§4) Sterilized diluvial soil was placed in a plastic box having a length of 21 cm, a width of 13 cm, and a depth of 7 cm. Each of the seeds of Digitaria ciliaris, Setaria viridis, Echinochloa crus-galli var. crus-galli, Avena fatua, Alopecurus myosuroides, Lolium multiflorum Lam., Apera spica-venti, Abutilon theophrasti, Amaranthus retroflexus, Chenopodium album, Stellaria media, Galium spurium, Veronica persica, corn, soybean, rice, wheat, beet, and rapeseed was sowed in a spot-like manner and was covered with the soil of a thickness of about 1.5 cm. […] The plastic box was placed in a greenhouse of 25° C. to 30° C. to grow plant.

[18] = test system: soybean; test: Test Example 4: effect on crop by soil treatment (symbol d); settings: application herbicide amount 320 g/ha
Text: as §2, §4

[19] = test system: rice; test: Test Example 4: effect on crop by soil treatment (symbol b); settings: application herbicide amount 320 g/ha
Text: as §2, §4

[20] = test system: wheat; test: Test Example 4: effect on crop by soil treatment (symbol e); settings: application herbicide amount 320 g/ha
Text: as §2, §4

[21] = test system: beet; test: Test Example 4: effect on crop by soil treatment (symbol f); settings: application herbicide amount 320 g/ha
Text: as §2, §4

[22] = test system: rapeseed; test: Test Example 4: effect on crop by soil treatment (symbol g); settings: application herbicide amount 320 g/ha
Text: as §2, §4

[23] = test system: Digitaria ciliaris; test: Test Example 5: herbicidal effect by foliage application, plastic box (symbol F); settings: 320 g/ha, 3 weeks after application
Method in brief: (§5)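 After sowing into sterilized diluvial soil and growing two weeks under glass at 25° C. to 30° C., seedlings receive a uniform foliar spray of diluted emulsion. Damage is judged visually three weeks on.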

[24] = test system: Setaria viridis; test: Test Example 5: herbicidal effect by foliage application, plastic box (symbol G); settings: 320 g/ha, 3 weeks after application
Method in brief: as §5

[25] = test system: Echinochloa crus-galli var. crus-galli; test: Test Example 5: herbicidal effect by foliage application, plastic box (symbol H); settings: 320 g/ha, 3 weeks after application
Method in brief: as §5

[26] = test system: Avena fatua; test: Test Example 5: herbicidal effect by foliage application, plastic box (symbol I); settings: 320 g/ha, 3 weeks after application
Method in brief: as §5

[27] = test system: Alopecurus myosuroides; test: Test Example 5: herbicidal effect by foliage application, plastic box (symbol J); settings: 320 g/ha, 3 weeks after application
Method in brief: as §5

[28] = test system: Lolium multiflorum Lam.; test: Test Example 5: herbicidal effect by foliage application, plastic box (symbol K); settings: 320 g/ha, 3 weeks after application
Method in brief: as §5

[29] = test system: Apera spica-venti; test: Test Example 5: herbicidal effect by foliage application, plastic box (symbol L); settings: 320 g/ha, 3 weeks after application
Method in brief: as §5

[30] = test system: Abutilon theophrasti; test: Test Example 5: herbicidal effect by foliage application, plastic box (symbol M); settings: 320 g/ha, 3 weeks after application
Method in brief: as §5

[31] = test system: Amaranthus retroflexus; test: Test Example 5: herbicidal effect by foliage application, plastic box (symbol N); settings: 320 g/ha, 3 weeks after application
Method in brief: as §5

[32] = test system: Chenopodium album; test: Test Example 5: herbicidal effect by foliage application, plastic box (symbol O); settings: 320 g/ha, 3 weeks after application
Method in brief: as §5

[33] = test system: Stellaria media; test: Test Example 5: herbicidal effect by foliage application, plastic box (symbol P); settings: 320 g/ha, 3 weeks after application
Method in brief: as §5

[34] = test system: Veronica persica; test: Test Example 5: herbicidal effect by foliage application, plastic box (symbol R); settings: 320 g/ha, 3 weeks after application
Method in brief: as §5

[35] = test system: corn; test: Test Example 5: effect on crop by foliage application, plastic box (symbol c); settings: 320 g/ha, 3 weeks after application
Method in brief: (§6)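 In a plastic box 7 cm deep filled with sterilized diluvial soil, seeds of crops and weeds such as Digitaria ciliaris, Avena fatua and Amaranthus retroflexus are sown in spots and covered with about 1.5 cm of soil before greenhouse growth at 25–30° C.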

[36] = test system: soybean; test: Test Example 5: effect on crop by foliage application, plastic box (symbol d); settings: 320 g/ha, 3 weeks after application
Method in brief: as §6

[37] = test system: rice plant; test: Test Example 5: effect on crop by foliage application, plastic box (symbol b); settings: 320 g/ha, 3 weeks after application
Method in brief: as §6

[38] = test system: wheat; test: Test Example 5: effect on crop by foliage application, plastic box (symbol e); settings: 320 g/ha, 3 weeks after application
Method in brief: as §6

[39] = test system: beet; test: Test Example 5: effect on crop by foliage application, plastic box (symbol f); settings: 320 g/ha, 3 weeks after application
Method in brief: as §6

[40] = test system: rapeseed; test: Test Example 5: effect on crop by foliage application, plastic box (symbol g); settings: 320 g/ha, 3 weeks after application
Method in brief: as §6

CC(=O)CC1CC(O)=C(c2c(C)cc(C3CC3)cc2C)C1=O (stereo not shown) [7-013]
Herbicidal effect grade, A: Echinochloa oryzacola Vasing. [1]: 2 (Herbicidal ratio of 20% or higher and lower than 40%) | Herbicidal effect grade, B: Scirpus juncoides [2]: 0 (Herbicidal ratio of 5% or lower (almost no effect)) | Herbicidal effect grade, C: Monochoria vaginalis [3]: 0 (Herbicidal ratio of 5% or lower (almost no effect)) | Herbicidal effect grade, F: Digitaria ciliaris [4]: 3 (Herbicidal ratio of 40% or higher and lower than 70%) | Herbicidal effect grade, G: Setaria viridis [5]: 0 (Herbicidal ratio of 5% or lower (almost no effect)) | Herbicidal effect grade, H: Echinochloa crus-galli var. crus-galli [6]: 0 (Herbicidal ratio of 5% or lower (almost no effect)) | Herbicidal effect grade, I: Avena fatua [7]: 0 (Herbicidal ratio of 5% or lower (almost no effect)) | Herbicidal effect grade, J: Alopecurus myosuroides [8]: 0 (Herbicidal ratio of 5% or lower (almost no effect)) | Herbicidal effect grade, K: Lolium multiflorum Lam. [9]: 0 (Herbicidal ratio of 5% or lower (almost no effect)) | Herbicidal effect grade, L: Apera spica-venti [10]: 0 (Herbicidal ratio of 5% or lower (almost no effect)) | Herbicidal effect grade, M: Abutilon theophrasti [11]: 0 (Herbicidal ratio of 5% or lower (almost no effect)) | Herbicidal effect grade, N: Amaranthus retroflexus [12]: 0 (Herbicidal ratio of 5% or lower (almost no effect)) | Herbicidal effect grade, O: Chenopodium album [13]: 0 (Herbicidal ratio of 5% or lower (almost no effect)) | Herbicidal effect grade, P: Stellaria media [14]: 0 (Herbicidal ratio of 5% or lower (almost no effect)) | Herbicidal effect grade, Q: Galium spurium [15]: 0 (Herbicidal ratio of 5% or lower (almost no effect)) | Herbicidal effect grade, R: Veronica persica [16]: 0 (Herbicidal ratio of 5% or lower (almost no effect)) | Effect on crop grade, c: corn [17]: 0 (Herbicidal ratio of 5% or lower (almost no effect)) | Effect on crop grade, d: soybean [18]: 0 (Herbicidal ratio of 5% or lower (almost no effect)) | Effect on crop grade, b: directly sowed rice plant [19]: 4 (Herbicidal ratio of 70% or higher and lower than 90%) | Effect on crop grade, e: wheat [20]: 0 (Herbicidal ratio of 5% or lower (almost no effect)) | Effect on crop grade, f: beet [21]: 0 (Herbicidal ratio of 5% or lower (almost no effect)) | Effect on crop grade, g: rapeseed [22]: 0 (Herbicidal ratio of 5% or lower (almost no effect)) | F: Digitaria ciliaris, herbicidal effect (criteria of Test Example 1) [23]: 4 (Herbicidal ratio of 70% or higher and lower than 90%) | G: Setaria viridis, herbicidal effect (criteria of Test Example 1) [24]: 2 (Herbicidal ratio of 20% or higher and lower than 40%) | H: Echinochloa crus-galli var. crus-galli, herbicidal effect (criteria of Test Example 1) [25]: 1 (Herbicidal ratio of 5% or higher and lower than 20%) | I: Avena fatua, herbicidal effect (criteria of Test Example 1) [26]: 1 (Herbicidal ratio of 5% or higher and lower than 20%) | J: Alopecurus myosuroides, herbicidal effect (criteria of Test Example 1) [27]: 3 (Herbicidal ratio of 40% or higher and lower than 70%) | K: Lolium multiflorum Lam., herbicidal effect (criteria of Test Example 1) [28]: 3 (Herbicidal ratio of 40% or higher and lower than 70%) | L: Apera spica-venti, herbicidal effect (criteria of Test Example 1) [29]: 0 (Herbicidal ratio of 5% or lower (almost no effect)) | M: Abutilon theophrasti, herbicidal effect (criteria of Test Example 1) [30]: 0 (Herbicidal ratio of 5% or lower (almost no effect)) | N: Amaranthus retroflexus, herbicidal effect (criteria of Test Example 1) [31]: 5 (Herbicidal ratio of 90% or more (almost completely withered)) | O: Chenopodium album, herbicidal effect (criteria of Test Example 1) [32]: 0 (Herbicidal ratio of 5% or lower (almost no effect)) | P: Stellaria media, herbicidal effect (criteria of Test Example 1) [33]: 0 (Herbicidal ratio of 5% or lower (almost no effect)) | R: Veronica persica, herbicidal effect (criteria of Test Example 1) [34]: 0 (Herbicidal ratio of 5% or lower (almost no effect)) | c: corn, effect on crop (criteria of Test Example 1) [35]: 0 (Herbicidal ratio of 5% or lower (almost no effect)) | d: soybean, effect on crop (criteria of Test Example 1) [36]: 0 (Herbicidal ratio of 5% or lower (almost no effect)) | b: directly sowed rice plant, effect on crop (criteria of Test Example 1) [37]: 1 (Herbicidal ratio of 5% or higher and lower than 20%) | e: wheat, effect on crop (criteria of Test Example 1) [38]: 0 (Herbicidal ratio of 5% or lower (almost no effect)) | f: beet, effect on crop (criteria of Test Example 1) [39]: 0 (Herbicidal ratio of 5% or lower (almost no effect)) | g: rapeseed, effect on crop (criteria of Test Example 1) [40]: 1 (Herbicidal ratio of 5% or higher and lower than 20%)
